ChEMBL document CHEMBL1177848, “Synthesis of novel 6,6a,7,8-tetrahydro-5H-naphtho[1,2-e]pyrimido[4,5-b][1,4]diazepines under microwave irradiation as potential anti-tumor agents” (2010)
Activity calls are given as the source filed them. The rule behind the calls is not given here.

How the values were obtained:
DU-145 = assay: Growth inhibition of human DU145 cells at 1 uM after 48 hrs by sulforhodamine B assay; type: functional, cell-based
LOX IMVI = assay: Growth inhibition of human LOXIMVI cells after 48 hrs by sulforhodamine B assay; type: functional
786-0 = assay: Growth inhibition of human 786-0 cells at 1 uM after 48 hrs by sulforhodamine B assay; type: functional, cell-based
SN12C = assay: Growth inhibition of human SN12C cells after 48 hrs by sulforhodamine B assay; type: functional
SK-MEL-5 = assay: Growth inhibition of human SK-MEL-5 cells after 48 hrs by sulforhodamine B assay; type: functional; conditions: SK-MEL-5, 48 h
A498 = assay: Growth inhibition of human A498 cells at 1 uM after 48 hrs by sulforhodamine B assay; type: functional, cell-based
CAKI-1 [1] = assay: Growth inhibition of human Caki1 cells at 1 uM after 48 hrs by sulforhodamine B assay; type: functional, cell-based
SR = assay: Growth inhibition of human SR cells at 1 uM after 48 hrs by sulforhodamine B assay; type: functional, cell-based
HCT-116 = assay: Growth inhibition of human HCT116 cells after 48 hrs by sulforhodamine B assay; type: functional; conditions: HCT-116, 48 h
U-251 = assay: Growth inhibition of human U251 cells after 48 hrs by sulforhodamine B assay; type: functional; conditions: U-251, 48 h
CCRF-CEM = assay: Growth inhibition of human CCRF-CEM cells at 1 uM after 48 hrs by sulforhodamine B assay; type: functional, cell-based
OVCAR-3 = assay: Growth inhibition of human OVCAR-3 cells after 48 hrs by sulforhodamine B assay; type: functional; conditions: OVCAR-3, 48 h
SW-620 = assay: Growth inhibition of human SW620 cells after 48 hrs by sulforhodamine B assay; type: functional; conditions: SW-620, 48 h
MDA-MB-468 [2] = assay: Growth inhibition of human MDA-MB-468 cells at 1 uM after 48 hrs by sulforhodamine B assay; type: functional, cell-based
NCI-H226 = assay: Growth inhibition of human NCI-H226 cells after 48 hrs by sulforhodamine B assay; type: functional; conditions: NCI-H226, 48 h
HOP-92 = assay: Growth inhibition of human HOP92 cells after 48 hrs by sulforhodamine B assay; type: functional; conditions: HOP-92, 48 h
EKVX = assay: Growth inhibition of human EKVX cells at 1 uM after 48 hrs by sulforhodamine B assay; type: functional, cell-based
KM12 = assay: Growth inhibition of human KM12 cells after 48 hrs by sulforhodamine B assay; type: functional; conditions: KM12, 48 h
RPMI-8226 = assay: Growth inhibition of human RPMI8226 cells after 48 hrs by sulforhodamine B assay; type: functional; conditions: RPMI-8226, 48 h
UACC-62 [3] = assay: Growth inhibition of human UACC62 cells after 48 hrs by sulforhodamine B assay; type: functional; conditions: UACC-62, 48 h
HCT-15 = assay: Growth inhibition of human HCT15 cells after 48 hrs by sulforhodamine B assay; type: functional; conditions: HCT-15, 48 h
NCI-H522 [4] = assay: Growth inhibition of human NCI-H522 cells after 48 hrs by sulforhodamine B assay; type: functional; conditions: NCI-H522, 48 h
NCI/ADR-RES [5] = assay: Growth inhibition of human NCI/ADR-RES cells at 1 uM after 48 hrs by sulforhodamine B assay; type: functional, cell-based
UACC-62 [6] = assay: Growth inhibition of human UACC62 cells at 1 uM after 48 hrs by sulforhodamine B assay; type: functional, cell-based
TK-10 [7] = assay: Growth inhibition of human TK10 cells at 1 uM after 48 hrs by sulforhodamine B assay; type: functional, cell-based
HCC 2998 = assay: Growth inhibition of human HCC2998 cells at 1 uM after 48 hrs by sulforhodamine B assay; type: functional, cell-based
NCI-H460 = assay: Growth inhibition of human NCI-H460 cells at 1 uM after 48 hrs by sulforhodamine B assay; type: functional, cell-based
T47D = assay: Growth inhibition of human T47D cells at 1 uM after 48 hrs by sulforhodamine B assay; type: functional, cell-based
TK-10 [8] = assay: Growth inhibition of human TK10 cells after 48 hrs by sulforhodamine B assay; type: functional; conditions: TK-10, 48 h
SF-295 = assay: Growth inhibition of human SF295 cells after 48 hrs by sulforhodamine B assay; type: functional; conditions: SF-295, 48 h
CAKI-1 [9] = assay: Growth inhibition of human Caki1 cells after 48 hrs by sulforhodamine B assay; type: functional; conditions: CAKI-1, 48 h
NCI-H23 = assay: Growth inhibition of human NCI-H23 cells at 1 uM after 48 hrs by sulforhodamine B assay; type: functional, cell-based
SNB-75 = assay: Growth inhibition of human SNB75 cells at 1 uM after 48 hrs by sulforhodamine B assay; type: functional, cell-based
MDA-MB-435 = assay: Growth inhibition of human MDA-MB-435 cells after 48 hrs by sulforhodamine B assay; type: functional; conditions: MDA-MB-435, 48 h
PC-3 = assay: Growth inhibition of human PC3 cells after 48 hrs by sulforhodamine B assay; type: functional; conditions: PC-3, 48 h
COLO 205 = assay: Growth inhibition of human COLO205 cells at 1 uM after 48 hrs by sulforhodamine B assay; type: functional, cell-based
NCI-H522 [10] = assay: Growth inhibition of human NCI-H522 cells at 1 uM after 48 hrs by sulforhodamine B assay; type: functional, cell-based
ACHN = assay: Growth inhibition of human ACHN cells after 48 hrs by sulforhodamine B assay; type: functional
MDA-MB-468 [11] = assay: Growth inhibition of human MDA-MB-468 cells after 48 hrs by sulforhodamine B assay; type: functional; conditions: MDA-MB-468, 48 h
SF-268 = assay: Growth inhibition of human SF268 cells at 1 uM after 48 hrs by sulforhodamine B assay; type: functional, cell-based
NCI/ADR-RES [12] = assay: Growth inhibition of human NCI/ADR-RES cells after 48 hrs by sulforhodamine B assay; type: functional
Hs-578T = assay: Growth inhibition of human Hs 578T cells at 1 uM after 48 hrs by sulforhodamine B assay; type: functional, cell-based
BT-549 = assay: Growth inhibition of human BT549 cells at 1 uM after 48 hrs by sulforhodamine B assay; type: functional, cell-based
MCF7 = assay: Growth inhibition of human MCF7 cells at 1 uM after 48 hrs by sulforhodamine B assay; type: functional, cell-based
M14 = assay: Growth inhibition of human M14 cells at 1 uM after 48 hrs by sulforhodamine B assay; type: functional, cell-based
[13] = read-out: LC50 (the source's name)

## Nc1nc(N)c2c(n1)NC(c1ccc(Cl)cc1)C1CCc3ccccc3C1=N2 (configuration not stated)
DU-145
  growth inhibition (GI): inactive
LOX IMVI
  GI50: 3.53 µM
  LC50: 44.5 µM
786-0
  growth inhibition (GI): inactive
SN12C
  GI50: 7.68 µM
SN12C; [13]
  CC50: 50.9 µM
SK-MEL-5
  GI50: 0.5 µM
  LC50: 6.56 µM
A498
  growth inhibition (GI): inactive
CAKI-1 [1]
  growth inhibition (GI): inactive
SR
  growth inhibition (GI): inactive
HCT-116
  GI50: 3.72 µM
  LC50: 38.6 µM
U-251
  GI50: 3.81 µM
  LC50: 43.9 µM
CCRF-CEM
  growth inhibition (GI): inactive
OVCAR-3
  GI50: 6.46 µM
  LC50 (lethal concentration, 50% cell kill): 43.6 µM
SW-620
  GI50: 8.23 µM
  LC50: 54.9 µM
MDA-MB-468 [2]
  growth inhibition (GI): inactive
NCI-H226
  GI50: 8.58 µM
  LC50: 80.6 µM
HOP-92
  GI50: 2.26 µM
  LC50 (50% lethal concentration): 31.9 µM
EKVX
  growth inhibition (GI): inactive
KM12
  GI50: 8.48 µM
  LC50 (concentration killing 50% of cells): 45.6 µM
RPMI-8226
  GI50: 2.75 µM
  LC50: 57.9 µM
UACC-62 [3]
  GI50: 3.66 µM
  LC50: 43.3 µM
HCT-15
  GI50: 4.16 µM
  LC50: 53.9 µM
NCI-H522 [4]
  GI50: 5.21 µM
  LC50: 54.4 µM
NCI/ADR-RES [5]
  growth inhibition (GI): inactive
UACC-62 [6]
  growth inhibition (GI): inactive
TK-10 [7]
  growth inhibition (GI): inactive
HCC 2998
  growth inhibition (GI): inactive
NCI-H460
  growth inhibition (GI): inactive
T47D
  growth inhibition (GI): inactive
TK-10 [8]
  GI50: 8.2 µM
  LC50 (50% lethal concentration): 58 µM
SF-295
  GI50: 3.37 µM
  LC50 (50% lethal concentration): 40.7 µM
CAKI-1 [9]
  GI50: 4.33 µM
CAKI-1 [9]; [13]
  CC50: 50 µM
NCI-H23
  growth inhibition (GI): inactive
SNB-75
  growth inhibition (GI): inactive
MDA-MB-435
  GI50: 4.72 µM
  LC50 (concentration killing 50% of cells): 54.1 µM
PC-3
  GI50: 2.86 µM
  LC50: 48.9 µM
COLO 205
  growth inhibition (GI): inactive
NCI-H522 [10]
  growth inhibition (GI): inactive
ACHN
  GI50: 4.72 µM
  LC50 (50% lethal concentration): 44.2 µM
MDA-MB-468 [11]
  GI50: 1.6 µM
MDA-MB-468 [11]; [13]
  CC50: 54.5 µM
SF-268
  growth inhibition (GI): inactive
NCI/ADR-RES [12]
  GI50: 5.53 µM
  LC50 (concentration killing 50% of cells): 43.8 µM
Hs-578T
  growth inhibition (GI): inactive
BT-549
  growth inhibition (GI): inactive
MCF7
  growth inhibition (GI): inactive
M14
  growth inhibition (GI): inactive
